Data as given in patent US10363251B2, “(+)-morphinans as antagonists of toll-like receptor 9 and therapeutic uses thereof” (Mallinckrodt LLC, priority 2009, dated 2019).

Molecular target: T1, TLR9 (Homo sapiens, UniProt Q9NR96)
T1 construct: expressed in transfected cells; host or cells: HEK293
T1 sequence (Q9NR96 26-1032): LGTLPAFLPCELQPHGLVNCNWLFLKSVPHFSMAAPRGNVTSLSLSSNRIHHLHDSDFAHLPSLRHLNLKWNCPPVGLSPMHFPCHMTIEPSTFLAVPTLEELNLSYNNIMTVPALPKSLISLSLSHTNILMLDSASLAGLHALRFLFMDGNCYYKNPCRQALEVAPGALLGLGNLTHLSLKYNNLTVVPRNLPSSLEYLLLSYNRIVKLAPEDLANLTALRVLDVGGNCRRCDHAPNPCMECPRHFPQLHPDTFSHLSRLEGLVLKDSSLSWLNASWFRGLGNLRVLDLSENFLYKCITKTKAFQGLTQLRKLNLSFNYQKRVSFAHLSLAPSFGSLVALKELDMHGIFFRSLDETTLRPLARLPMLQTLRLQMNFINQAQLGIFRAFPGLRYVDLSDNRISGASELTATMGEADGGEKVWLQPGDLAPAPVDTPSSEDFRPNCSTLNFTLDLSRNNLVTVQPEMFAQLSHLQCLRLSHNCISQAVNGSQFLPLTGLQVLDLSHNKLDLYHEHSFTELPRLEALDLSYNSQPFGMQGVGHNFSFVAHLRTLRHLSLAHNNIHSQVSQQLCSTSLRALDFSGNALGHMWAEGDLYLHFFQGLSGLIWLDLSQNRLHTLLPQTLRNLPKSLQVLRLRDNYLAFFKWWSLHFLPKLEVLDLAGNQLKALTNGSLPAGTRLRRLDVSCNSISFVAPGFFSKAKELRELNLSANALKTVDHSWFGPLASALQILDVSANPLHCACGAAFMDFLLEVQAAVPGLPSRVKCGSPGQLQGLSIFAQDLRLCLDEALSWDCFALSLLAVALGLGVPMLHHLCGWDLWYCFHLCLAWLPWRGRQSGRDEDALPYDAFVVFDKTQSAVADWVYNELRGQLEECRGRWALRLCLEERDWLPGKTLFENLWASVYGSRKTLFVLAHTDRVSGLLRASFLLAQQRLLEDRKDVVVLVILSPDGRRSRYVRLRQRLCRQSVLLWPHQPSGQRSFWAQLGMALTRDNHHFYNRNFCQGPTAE
Assay: TLR9 screening of (+)-morphinan library, SEAP reporter in HEK293 cells expressing TLR9
Format: cell-based
Details: activator ODN2006; for OD 650 nm (mean ± sd): control (no activator) 0.14, activator 1.42 OD; for inhibition at 0.1 µM: HEK293, read-out: % Inhibition (mean), 100 nM; for inhibition at 10 µM: HEK293, read-out: % Inhibition (mean), 10 μM
Procedure: The secreted alkaline phosphatase reporter is under the control of a promoter inducible by the transcription factor NF-κB. A library of more than 100 (+)-morphinan compounds was screened for TLR9 antagonist activity by assessing NF-κB activation in the HEK293 cells expressing TLR9. This reporter gene allows the monitoring of signaling through the TLR, based on the activation of NF-κB.
In a 96-well plate (200 μL total volume) containing 50,000 cells/well, 20 μL of each sample compound was added to wells, in triplicate, followed by a 30 minute incubation at 37° C. and 5% CO2. After the 30 minutes of incubation, 20 μL of the activator ODN2006 was added to each well. The media added to the wells was designed for the detection of NF-κB induced SEAP expression. After a 16-20 hr incubation period, the OD at 650 nm was read on a Beckman Coulter AD 340C Absorbance Detector. All compounds were tested at concentrations of 10 μM and 100 nM.

SMILES | OD 650 nm (mean ± sd) (100 nM) | OD 650 nm (mean ± sd) (10 μM) | inhibition at 0.1 µM | inhibition at 10 µM | % Inhibition (mean) (100 nM, 0.1 µM) | % Inhibition (mean) (10 μM)
C=CCN1CC[C@@]23c4c5ccc(OC)c4O[C@@H]2C(=C)CC[C@]3(O)[C@@H]1C5 [II-51] | 1.20 ± 0.04 OD | 0.84 ± 0.05 OD | 16% | 41% | – | –
COc1ccc2c3c1O[C@@H]1C(O)CC[C@]4(O)[C@H](C2)N(CC2CCC2)CC[C@@]314 (stereo partly drawn) [II-55] | 1.46 ± 0.08 OD | 1.17 ± 0.08 OD | -3% | 18% | – | –
COc1ccc2c3c1O[C@@H]1C(=O)CC[C@@H]4[C@H](C2)N(C(=O)C2CC2)CC[C@@]314 [II-57] | 0.84 ± 0.02 OD | 1.15 ± 0.03 OD | – | 19% | 41% | –
COc1ccc2c3c1O[C@@H]1C(=O)CC[C@]4(O)[C@H](C2)N(C(=O)C2CCC2)CC[C@@]314 [II-59] | 1.19 ± 0.07 OD | 1.41 ± 0.13 OD | 17% | 1% | – | –
COc1ccc2c3c1O[C@@H]1C(=O)CC[C@]4(O)[C@H](C2)N(C(=O)c2ccccc2)CC[C@@]314 [II-60] | 1.24 ± 0.04 OD | 0.17 ± 0.03 OD | 13% | 88% | – | –
O=C1CC[C@@H]2[C@@H]3Cc4ccc(O)c5c4[C@]2(CCN3)[C@@H]1O5 [II-61] | 1.23 ± 0.02 OD | 1.22 ± 0.07 OD | 13% | 14% | – | –
CN(C(=O)/C=C/c1ccoc1)[C@H]1CC[C@]2(O)[C@@H]3Cc4ccc(O)c5c4[C@]2(CC[N+]3([O-])CC2CC2)[C@@H]1O5 (stereo partly drawn) [II-63] | 0.23 ± 0.07 OD | 0.13 ± 0.01 OD | 84% | 91% | – | –
C=CCN1CC[C@@]23c4c5ccc(O)c4O[C@@H]2C(=O)CC[C@]3(O)[C@@H]1C5 [II-64] | 1.31 ± 0.14 OD | 0.98 ± 0.01 OD | 8% | 31% | – | –
C=CCN1CC[C@@]23c4c5ccc(O)c4O[C@@H]2C(=O)CC[C@]3(OC)[C@@H]1C5 [II-70] | 1.12 ± 0.04 OD | 0.79 ± 0.03 OD | 21% | 45% | – | –
NC1CC[C@]2(O)[C@@H]3Cc4ccc(O)c5c4[C@]2(CCN3CC2CC2)[C@@H]1O5 (stereo partly drawn) [II-71] | 0.19 ± 0.01 OD | 0.10 ± 0.00 OD | 87% | 93% | – | –
COc1ccc2c3c1O[C@@H]1[C@@H]4CCC5(O4)[C@H](C2)N(CC2CC2)CC[C@@]315 [II-72] | 1.10 ± 0.02 OD | 0.49 ± 0.01 OD | 22% | 65% | – | –
O=C1CC[C@]2(O)[C@@H]3Cc4ccc(O)c5c4[C@]2(CCN3CC2CC2)[C@@H]1O5 [II-73] | 1.35 ± 0.13 OD | 0.96 ± 0.08 OD | 5% | 32% | – | –
CC(=O)NC1CC[C@]2(O)[C@@H]3Cc4ccc(O)c5c4[C@]2(CCN3CC2CC2)[C@@H]1O5 (stereo partly drawn) [II-75] | 1.08 ± 0.02 OD | 0.91 ± 0.11 OD | 24% | 36% | – | –
OCCNC1CC[C@]2(O)[C@@H]3Cc4ccc(O)c5c4[C@]2(CCN3CC2CC2)[C@@H]1O5 (stereo partly drawn) [II-76] | 0.16 ± 0.01 OD | 0.10 ± 0.01 OD | 89% | 93% | – | –
C=C1CC[C@]2(O)[C@@H]3Cc4ccc(O)c5c4[C@]2(CCN3CC2CC2)[C@@H]1O5 [II-77] | 1.24 ± 0.04 OD | 0.98 ± 0.02 OD | 13% | 37% | – | –
CO[C@]12CCC(=O)[C@H]3Oc4c(O)ccc5c4[C@]31CCN(CC1CC1)[C@H]2C5 [II-79] | 1.07 ± 0.03 OD | 1.06 ± 0.11 OD | 25% | 25% | – | –
Oc1ccc2c3c1O[C@@H]1[C@H](O)CC[C@]4(O)[C@H](C2)N(CC2CCC2)CC[C@@]314 [II-82] | 1.37 ± 0.02 OD | 0.49 ± 0.03 OD | 4% | 65% | – | –
COc1ccc2c3c1O[C@@H]1C(OC(C)=O)=CC[C@]4(O)[C@H](C2)N(C(C)=O)CC[C@@]314 [II-83] | 1.40 ± 0.13 OD | 1.11 ± 0.09 OD | 1% | 22% | – | –
COc1ccc2c3c1O[C@@H]1C(=O)CC[C@]4(O)[C@H](C2)N(C(C)=O)CC[C@@]314 [II-84] | 1.44 ± 0.06 OD | 1.51 ± 0.08 OD | -1% | -6% | – | –
COc1ccc2c3c1O[C@@H]1C(=O)CC[C@@H]4[C@H](C2)N(C(=O)C2CCC2)CC[C@@]314 [II-85] | 1.45 ± 0.04 OD | 1.45 ± 0.04 OD | -2% | -2% | – | –
COC1=CC=C2[C@@H]3Cc4c(Br)cc(OCc5ccccc5)c5c4[C@]2(CCN3CC2CC2)[C@@H]1O5 [II-86] | 1.15 ± 0.11 OD | 0.13 ± 0.03 OD | 19% | 91% | – | –
COC1=CCC2[C@@H]3Cc4ccc(OC)c5c4[C@]2(CCN3CC2CC2)[C@@H]1O5 (stereo partly drawn) [II-87] | 1.28 ± 0.06 OD | 0.45 ± 0.01 OD | – | – | 10% | 69%
O=C1CC[C@@H]2[C@@H]3Cc4ccc(OCc5ccccc5)c5c4[C@]2(CCN3CC2CC2)[C@@H]1O5 [II-88] | 1.12 ± 0.15 OD | 0.13 ± 0.01 OD | 21% | 91% | – | –
C=CCN1CC[C@@]23c4c5ccc(OC)c4O[C@@H]2C2(CC[C@@H]3[C@@H]1C5)OCCO2 [II-89] | 1.53 ± 0.10 OD | 1.08 ± 0.02 OD | -8% | 24% | – | –
[O-][N+]1(CC2CC2)CC[C@@]23c4c5ccc(O)c4O[C@@H]2[C@H](O)CC[C@]3(O)[C@@H]1C5 (stereo partly drawn) [II-90] | 1.39 ± 0.03 OD | 0.17 ± 0.05 OD | 2% | 88% | – | –
CCCNC1CCC2C3Cc4ccc(OC)c5c4[C@]2(CCN3C)C1O5 (stereo partly drawn) [II-91] | 0.12 ± 0.01 OD | 0.09 ± 0.01 OD | 92% | 93% | – | –
COC(=O)[C@@H](C)NC1CCC2C3Cc4ccc(OC)c5c4[C@]2(CCN3C)C1O5 (stereo partly drawn) [II-92] | 1.09 ± 0.03 OD | 0.73 ± 0.06 OD | 23% | 48% | – | –
COC1=CCC2[C@@H]3Cc4ccc(OC)c5c4[C@]2(CCN3CC2CC2)[C@@H]1O5 (stereo partly drawn) [II-95] | 1.11 ± 0.04 OD | 0.37 ± 0.03 OD | – | 74% | 22% | –
COC1=CCC2[C@@H]3Cc4ccc(OC)c5c4[C@]2(CCN3C)[C@@H]1O5 (stereo partly drawn) [II-96] | 1.15 ± 0.06 OD | 0.42 ± 0.02 OD | 19% | 71% | – | –
COc1ccc2c3c1O[C@@H]1C4(CCC5[C@H](C2)N(CC2CC2)CC[C@]351)OCCO4 (stereo partly drawn) [II-97] | 1.22 ± 0.02 OD | 1.42 ± 0.07 OD | 14% | 0% | – | –
